Results on one compound are retold here after US20190017067A1, “[…] PLANTS HAVING MODIFIED 5-ENOLPYRUVYLSHIKIMATE-3-PHOSPHATE SYNTHASE GENE REGULATION” (Regents of the University of Minnesota, priority 2016, published 2019).

Holding throughout (type): in vivo, cassava (Manihot esculenta)
The subject of assay [1] is cassava plants transgenic for H009 (EPSPS promoter driving the GAAT (G101A/A192T) EPSPS sequence). Briefly: Greenhouse glyphosate challenge, visual damage score. The settings on record: 50 mg active ingredient per plant applied dropwise to leaves of 4-5 week old plants, scored three times weekly, 1=no damage, 7=plant death. How it is done: (§1) Plants transgenic for 2×35S and native EPSPS promoter expression cassettes were established in the greenhouse following procedures described elsewhere (Taylor et al., 2012 Tropical Plant Biology, 5: 127-139; and Chauhan et al., 2015 Plant Cell Tissue and Organ Culture 121: 591-603). Glyphosate 5.4 was prepared in a solution containing Surface surfactant and applied to leaves of 4-5 week old plants. Glyphosate was applied at a rate of 50 mg active ingredient per plant in a dropwise manner to the youngest 1-2 fully expanded leaves. Plants were grown on the greenhouse bench under conditions described elsewhere (Taylor et al., 2012 Tropical Plant Biology, 5: 127-139; and Chauhan et al., 2015 Plant Cell Tissue and Organ Culture 121: 591-603). Three times per week plants were scored visually on a 1-7 scale for damaged caused by the glyphosate application, where 1=no damage and 7=death.

For assay [2], the system named is cassava plants transgenic for H010 (double 35S promoter driving the GAAT EPSPS sequence). Described as above. The settings on record: 50 mg active ingredient per plant applied dropwise to leaves of 4-5 week old plants, scored three times weekly, 1=no damage, 7=plant death. The method, then:
as §1

Assay [3] deals with cassava plants transgenic for H013 (EPSPS promoter driving the TIPI (T102I/P106I) EPSPS sequence). The description is as above. The settings on record: 50 mg active ingredient per plant applied dropwise to leaves of 4-5 week old plants, scored three times weekly, 1=no damage, 7=plant death. The method, then: as §1
For assay [4], the system named is cassava plants transgenic for H014 (double 35S promoter driving the TIPI EPSPS sequence). Described as above. The settings on record: 50 mg active ingredient per plant applied dropwise to leaves of 4-5 week old plants, scored three times weekly, 1=no damage, 7=plant death. How it is done:
as §1

Assay [5] concerns cassava plants transgenic for H063 (RB1 promoter driving the TIPA EPSPS sequence). The description is as above. Particulars: two independent lines, assay as for FIG. 6 (50 mg active ingredient per plant; 1=no damage, 7=plant death). How it is done:
as §1
(§2) To test the suitability of the two best promoter candidates for driving EPSPS expression, the RB1 and DFP promoters were used to drive expression of TIPA gene models (as shown in FIG. 12) transformed into cassava as described for the other gene models in Example 2. Independent lines were challenged with glyphosate as described for the other gene models in Example 6.

Assay [6] relates to cassava plants transgenic for H064 (DFP promoter driving the TIPA EPSPS sequence). The assay is described as above. Particulars: four independent lines, assay as for FIG. 6 (50 mg active ingredient per plant; 1=no damage, 7=plant death). How it is done: as §1, §2
Assay [7] concerns WT non-transgenic cassava plant (susceptible control). Nature of the assay: Greenhouse glyphosate challenge, phenotype. Particulars: 50 mg active ingredient per plant, 21 days after application (FIG. 7). The method, then:
as §1

Assay [8] relates to cassava plants edited with the H056 vector (double 35s promoter driving the TIPA enzyme). Nature of the assay: Greenhouse glyphosate challenge of gene-edited plants. The settings on record: H056 edited event; 50 mg active ingredient per plant; assay as for FIG. 6; compared with H004 event. The method, then:
as §1
Vectors containing gene editing reagents described in Example 8 were introduced into cassava callus via Agrobacterium transformation (for example, SEQ ID NOs: 11-14). The vectors were designed to repair the EPSPS promoter excision event either by HR or NHEJ from a standard T-DNA (H055; SEQ ID NO: 11), by HR only from a standard T-DNA (H056; SEQ ID NO: 12), or by HR only from a geminivirus replicon (H060; SEQ ID NO: 14). […]

Assay [9] has as its system non-transgenic cassava stem cuttings. Nature of the assay: In vitro rooting test on glyphosate-containing media. Particulars: glyphosate added to the medium at 0.05 mM. The method, then:
Experiments were conducted to access the effects of glyphosate on in vitro rooting by culturing non transgenic shoots on media containing different concentrations of glyphosate ranging from 0.001 mM to 1.0 mM.
(§3) Plantlets were regenerated from five independent transformation events with each gene model vector. Apical stem cuttings approximately 1.5 cm in length were excised from in vitro shoot cultures of transgenic plant lines and cultured on Murashige and Skoog basal media supplemented with 0.05 mM glyphosate. A total of five Petri dishes were established per transgenic event with three plantlets cultured in each dish.
(§4) Plants were monitored for a period of three weeks. The number of roots formed, length of roots, shoot vigor, and overall plant health were recorded at weekly intervals.

Assay [10] has as its system shoots of transgenic events expressing high levels of the T102I/P106A (TIPA) enzyme. The assay is described as above. The settings on record: media containing 0.05 mM glyphosate; compared to events expressing the gene variant at lower levels; p=0.00.
From the text: Gene models are shown in FIG. 2, and indicated as follows: H001, WT EPSPS driven by the TME7 EPSPS promoter; H002, T102I/P106A EPSPS driven by the TME7 EPSPS promoter; H003, WT EPSPS driven by the 2×35s promoter; H004, T102I/P106A EPSPS driven by the 2×35s promoter.
as §3, §4

Entries after “also recorded” stand apart in the source; their conditions may differ.

Turning to `O=C(O)CNCP(=O)(O)O` [glyphosate], the “average damage to the shoots, scale of 1-7” value in assay [1] is 4-6.5; in [2], 3-4; in [3] it was 4-5.5; in [4], 1-3.5; in assay [5], 3-4; in assay [6], “around 4”. Besides, the “phenotype after herbicide challenge” value in assay [7] is “complete killing”. Moreover, in assay [8], the “glyphosate tolerance of edited plants (damage over time)” value is “equivalent to the best H004 event recovered; also recorded: equivalent to performance of the best H004”. The “effect on in vitro rooting and shoots” value in [9] is “Inhibited root formation and shoot death”. In assay [10], the “number and length of roots formed” value is “more and longer roots”.
